Molecules are shown by their SMILES. Bounds are passed on as bounds.

A short description of series [1]: Liver microsomal metabolism assay, rat. In kind it is in vitro ADME. The following applies: SD, pH 7.4, rat liver microsomes 0.5 mg/mL, compound 1 μM, 37° C.; for microsomal CLint at 1 μM: read-out: Rat liver microsome assay CLint; for half-life at 1 μM: read-out: Rat liver microsome assay t1/2. The protocol: (§1) (3) Liver Microsomal Metabolism Assay
(§2) […]; Coenzyme (NADPH/NADH): 1 mM, Sigma Life Science; Magnesium chloride: 5 mM, 100 mM phosphate buffer (pH 7.4).
(§3) Preparation of stock solutions: Powder of the compounds were accurately weighed and dissolved in DMSO to 5 mM.
(§4) Preparation of phosphate buffer (100 mM, pH7.4): A pre-prepared 0.5M potassium dihydrogen phosphate (150 mL) was mixed with 0.5M dibasic potassium phosphate (700 mL). The pH of the mixture was adjusted to 7.4 with 0.5M dibasic potassium phosphate solution. The mixture was diluted 5-fold with ultrapure water before use, and magnesium chloride was added to obtain a phosphate buffer (100 mM) containing 100 mM potassium phosphate, 3.3 mM magnesium chloride, pH 7.4.
(§5) A NADPH regeneration system solution (containing 6.5 mM NADP, 16.5 mM G-6-P, 3 U/mL G-6-P D, 3.3 mM magnesium chloride) was prepared and placed on wet ice prior to use.
(§6) Incubation of the samples: The stock solutions of the respective compounds were respectively diluted to 0.25 mM with an aqueous solution containing 70% acetonitrile, and used as a working solution, ready for use. 398 μL of the dilution of human liver microsomes or rat liver microsomes were added to 96-well incubation plates (N=2), respectively, and 2 μL of 0.25 mM working solution was added and mixed.
(§7) Metabolic stability assay: 300 μL of pre-chilled stop solution was added to each well of 96-well deep well plates and placed on ice as stop plates. The 96-well incubation plates and NADPH regeneration system were placed in a 37° C. water bath box, shaken at 100 rpm and pre-incubated for 5 min. 80 μL of incubation solution was taken out from each well of the incubation plates and added to the stop plates, mixed, and replenished with 20 μL of NADPH regeneration system solution as a 0-min sample. 80 μL of NADPH regeneration system solution was added to each well of the incubation plates to start the reaction and start counting. […] Separately, 100 μL of the reaction solutions was taken at 10, 30, and 90 min reaction, respectively, added to stop plates, and vortexed for 3 minutes to terminate the reaction. The stop plates were centrifuged at 5000×g at 4° C. for 10 min. 100 μL of the supernatant was added to a 96-well plate to which 100 μL of distilled water was previously added, mixed, and analyzed by LC-MS/MS.
(§8) Data analysis: The peak areas of the corresponding compounds and internal standard were detected by LC-MS/MS system, and the ratio of the peak area of the compounds to the internal standard was calculated.
(§9) The metabolic stability of the compounds in human and rat liver microsomes was evaluated by simultaneously testing and comparing the compounds disclosed herein and the non-deuterated compound. […]
On the technique in general: Microsomes from liver hold many membrane-bound enzymes, among them those of drug oxidation.

For a further series, the system named is Ba/F3 EML-ALK cells. Nature of the series: Cytotoxicity assay (cell viability, CellTiter-Glo), Ba/F3 EML-ALK. Format: cell-based. The following applies: Mus musculus, BaF3, 72 h, read-out: Ba/F3 EML-ALK IC50.
A short description of series [2]: Pharmacokinetic assay in rats. Format: in vivo, SD rat. The following applies: male SD rats, i.g., 3 mg/kg; for AUC(0-t) / Cmax / MRT / Tmax: rat, plasma, po. On the procedure: (4) Pharmacokinetic Assay in Rats Assay objective: after administration of test compounds to rats, the pharmacokinetic behavior of the compounds disclosed herein was investigated. Assay Animals: Species and strains: SD rat grade: SPF grade Gender and quantity: male, 6 Weight range: 180 to 220 g (the actual weight range was from 187 to 197 g) Assay Procedure: Before blood samples were collected, 20 μL of 2 M sodium fluoride solution (esterase inhibitor) was previously added to an EDTA-K2 anticoagulant tube, dried in an 80° C. oven, and placed in a 4° C. refrigerator. Rats (male, weighing 187 to 197 g) were randomly divided into 2 groups, and were fasted overnight in the afternoon before the experiment but were allowed to drink water freely. Food was given 4 hours after the administration. […] About 100-200 μL of blood was taken from the orbital vein of rats at 15 min, 30 min, 1, 2, 3, 5, 8 and 10 h after administration, placed in a 0.5 mL Eppendorf tube with EDTA-K2 anticoagulant and mixed immediately. After anticoagulation, the tube was gently inverted 5-6 times as quickly as possible. After the blood was taken, it was placed in an ice box, and then within 30 min, the blood sample was centrifuged for 10 min at 4000 rpm and 4° C. to separate the plasma. Immediately after collection of all plasma, it was stored at −20° C. The concentration of the drug in plasma at each time point was determined after sample collection at all time points. Based on the data of the average concentration of the drug in plasma versus time after administration obtained as described above, pharmacokinetics-related parameters of male SD rats after the i.g. administration of test compounds (3 mg/kg) were calculated using the Winnonin software according to non-compartment statistical moment theory.

Series [3] concerns HCC-78 (SLC34A2-ROS1) cells. Kind of series: cells. As to conditions: Homo sapiens, HCC78, 72 h, read-out: HCC-78 IC50. On the procedure: (§10) Assay methods: 1. Preparation of cell plates: Ba/F3, and Ba/F3 Bcr-Abl T315I cells were separately seeded in 96-well plates, and 8 ng/ml IL-3 was added to Ba/F3 cells. The cell plates were placed in a carbon dioxide incubator for culture overnight. 2. […] 3. Treatment of cells with compounds: The compounds were transferred to cell plates at a starting concentration of 10 μM. The cell plates were incubated in a carbon dioxide incubator for 3 days. 4. Detection: CellTiter-Glo reagent was added to the cell plates and incubated for 30 minutes at room temperature to stabilize the luminescence signal. Readings were performed using a PerkinElmer Envision multi-label analyzer.

The subject of another series is KM12 (TPM3-TRKA) cells. Kind of series: cells. The following applies: Homo sapiens, KM12, 72 h, read-out: KM12 IC50. The protocol: as §10
For series [4], the system named is Ba/F3 EML-ALK^L1196M cells. Nature of the series: Cytotoxicity assay (cell viability, CellTiter-Glo), Ba/F3 EML-ALK L1196M. Format: cell-based. The following applies: Mus musculus, BaF3, 72 h, read-out: Ba/F3 EML-ALK^L1196M IC50. Background: In ATP-based viability assays light output follows the ATP content of the culture.
Series [5] in a line: Liver microsomal metabolism assay, human. Format: in vitro ADME. As to conditions: pH 7.4, human liver microsomes 0.5 mg/mL, compound 1 μM, 37° C.; for microsomal CLint at 1 μM: read-out: Human liver microsome assay CLint; for half-life at 1 μM: read-out: Human liver microsome assay t1/2. On the procedure:
as §1, §2, §3, §4, §5, §6, §7, §8, §9

As to `CN1CCN(c2ccc(C(=O)Nc3n[nH]c4ccc(Cc5cc(F)cc(F)c5)cc34)c(NC3CCOCC3)c2)CC1` [Entrectinib, N-(5-(3,5-difluorobenzyl)-1H-indazol-3-yl)-4-(4-methylpiperazin-1-yl)-2-((tetrahydro-2H-pyran-4-yl)amino)benzamide, reference compound], in series [1], the microsomal CLint at 1 μM worked out at 32.9 µL/min/mg and the half-life at 1 μM came to 0.703 h. Besides, in the series on Ba/F3 EML-ALK cells, the IC50 is 50 to 150 nM. Moreover, in series [2], the Cl_pred came out at 114 mL/min/kg; the F amounted to 9.23%; the area under the curve AUC(0-t) – broadly, the area under the concentration-time curve up to a stated or last time point – was 1460 ng·h/mL; the highest level (Cmax) was 236 ng/mL. Moreover, in series [2], the MRT (usually the average time that molecules of a dose stay in the body) amounted to 4.24 h and the time of peak concentration (Tmax) – broadly, the time from dosing to the highest level – is 2.17 h. For the same compound, the IC50 in series [3] lay in the range of 10 to 50 nM. Besides, the IC50 in the series with KM12 (TPM3-TRKA) cells lay within 1 to 10 nM. In series [4], the IC50 is over 200 nM. In series [5], the microsomal CLint at 1 μM was 48.1 µL/min/mg and the half-life at 1 μM came to 0.48 h.

On to `[2H]C([2H])([2H])N1CCN(c2ccc(C(=O)Nc3n[nH]c4ccc(Cc5cc(F)cc(F)c5)cc34)c(NC3CCOCC3)c2)CC1` [Compound T-1, N-(5-(3,5-difluorobenzyl)-1H-indazol-3-yl)-4-(4-(methyl-d3)piperazin-1-yl)-2-((tetrahydro-2H-pyran-4-yl)amino)benzamide], for which, in series [1], the microsomal CLint at 1 μM was 21.3 µL/min/mg and the half-life at 1 μM stood at 1.09 h. Further, the IC50 with Ba/F3 EML-ALK cells is 50 to 150 nM. In series [2], the Cl_pred was determined as 155 mL/min/kg, the F came out at 7.43%, the AUC(0-t) worked out at 1070 ng·h/mL and the Cmax (commonly the maximum level reached in the sampled fluid or tissue) worked out at 145 ng/mL. Further, in series [2], the mean residence time MRT worked out at 5.31 h and the Tmax is 3.33 h. For the same compound, the IC50 in series [3] was 10 to 50 nM. For the same compound, the IC50 with KM12 (TPM3-TRKA) cells is 1 to 10 nM. For the same compound, in series [5], the microsomal CLint at 1 μM amounted to 34.7 µL/min/mg and the half-life at 1 μM turned out to be 0.665 h.

As to `[2H]C1([2H])N(C)C([2H])([2H])C([2H])([2H])N(c2ccc(C(=O)Nc3n[nH]c4ccc(Cc5cc(F)cc(F)c5)cc34)c(NC3CCOCC3)c2)C1([2H])[2H]` [Compound T-2, N-(5-(3,5-difluorobenzyl)-1H-indazol-3-yl)-4-(4-methylpiperazin-1-yl-2,2,3,3,5,5,6,6-d8)-2-((tetrahydro-2H-pyran-4-yl)amino)benzamide], the microsomal CLint at 1 μM in series [1] came to 19.5 µL/min/mg; in series [5], 31.3 µL/min/mg. In addition, the half-life at 1 μM in series [1] was found to be 1.19 h; in series [5], 0.738 h. For the same compound, the IC50 with Ba/F3 EML-ALK cells is 50 to 150 nM; in series [3] it was 10 to 50 nM; in the series on KM12 (TPM3-TRKA) cells, 1 to 10 nM.

Source of the values: patent publication US11267806B2, “Indazole compound for use in inhibiting kinase activity, composition and application thereof” (Shenzhen TargetRx, Inc., priority 2017, dated 2022).
